Measurements reported in patent US20240207265A1, “TREATMENT OF CNS DISEASES WITH sGC STIMULATORS” (Tisento Therapeutics Inc., priority 2021, published 2024).

Assays:
[1] = test system: cAMP response element-binding protein (CREB); assay: sGC stimulator induced phosphorylation of CREB in rat primary neurons; format: cell-based; details: Primary neuron, 10 μM DETA-NONOate, free acid, geometrical mean, read-out: pCREB EC50
Experimental: Neurons were isolated from Sprague Dawley rat embryos on embryonic day 18 (E18). Approximately 10 embryos were obtained from each rat, and whole brains were isolated from the embryos. Hippocampus and cortex were dissected from the brains under a stereoscopic microscope using two fine tweezers. The meninges were carefully removed. After dissection, the tissues were chopped and washed gently once with 10 mL of Ca^2+ and Mg^2+ free Hank's balanced salt solution (HBSS, Corning cat #21-022-CM) in a 15-mL conical tube. After washing, 5 mL of a solution of 0.25% trypsin (Invitrogen cat #15090-046) and 0.1% deoxyribonuclease I (DNase I, Sigma cat #DN-25) were added to the tissues, then incubated at 37° C. for 15 min. Next, tissues were washed 3 times with ice-cold HBSS, 3 mL of a solution of 0.1% of DNase I was added, then tissues were slowly pipetted 12 times using a glass Pasteur pipette, followed by centrifugation at 500×g for 10 min. […]
For each test concentration, the compound was diluted in 100% DMSO to 100× its final assay concentration. […] Medium was removed, cells were lysed and levels of pCREB was determined according to Cisbio protocols (phospho-CREB (Ser133) catalog #64CREPEG). Plates were read using Envision instrument (PerkinElmer).
pCREB was determined for each well and analyzed with a […] (log(agonist) vs. response-variable slope) using GraphPad Prism Software v.8. […]

[2] = test system: MK-801-induced memory deficit; assay: Novel Object Recognition (NOR) test, MK-801-induced memory disruption; format: in vivo, rat; details: for Recognition Index vs Vehicle-MK-801 group: 1 mg/kg PO 60 min prior to training, MK-801 0.1 mg/kg; for side effects in NOR study: any dose tested, oral, Long Evans rats
Experimental: In the present study, a memory saving model was used. MK-801 (Dizocilpine), an uncompetitive antagonist of the NMDA receptor was used to cause deficit of recognition memory. sGC stimulators were evaluated for their efficacy to prevent memory impairment induced by MK-801.
Adult male Long-Evans rats (275-299 gram at arrival from Envigo, Indianapolis, IN) were used in this study. Rats were placed in the experimental rooms and assigned unique identification numbers (tail marks). Rats were housed 2 per cage in polycarbonate cages with filter tops and acclimated for at least 7 days prior to testing. Animal room was maintained in a 12/12 h light/dark cycle (lights on at 07.00 EST), 22±1° C. and relative humidity at approximately 50%. Food and water were provided ad libitum. All animals were examined, handled and weighed prior to the study to assure adequate health and to minimize the non-specific stress associated with testing. Each animal was randomly assigned across the treatment groups. The experiments were conducted during the animal's light cycle phase.
MK-801 (0.1 mg/kg; Sigma-Aldrich) was dissolved in saline and injected IP, 15 min prior to NOR training. The dose volume was 1 ml/kg.
Galantamine (1 mg/kg; Tocris) was dissolved in saline and injected IP, 15 minutes prior to training. The dose volume was 1 ml/kg.
Compound I-20 (0.03, 0.3 and 1 mg/kg) was formulated in vehicle (0.5% (w/w) methyl cellulose and 0.5% (w/w) Tween 80 in ultrapure water) and orally dosed 60 min prior to NOR training at 2 ml/kg dose volume.
Compound I-14 (0.01, 0.1 and 1 mg/kg) was formulated as its Na+ salt as a solution in MilliQ water and stored as frozen aliquots. The aliquots of compound solutions and compound vehicle were stored in −80° C. and freshly thawed on each testing day. The compound and vehicle were orally dosed 60 minutes prior to NOR training. The dose volume was 10 ml/kg.
NOR test was conducted in an open-field arena (40×40 cm) placed in a sound-attenuated room under dimmed lighting. Each rat was tested separately, and care was taken to remove olfactory/taste cues by cleaning the arena and test objects with 70% alcohol between trials and rats. All training and testing trials were video-taped and scored by an observer blind to treatments.
On Days 1 and 2, rats were allowed to freely explore the arena (no objects inside) for a 5-minute habituation period. On Day 3 (training and testing day), rats were administered vehicle, saline and/or compound solution according to corresponding pretreatment, which is defined as time between injection and start of NOR training. Each animal was placed into the test arena in the presence of two identical objects. Each rat was placed in the arena facing the same direction at the same position, and the time spent actively exploring the objects during a 3-minute training period (T1) was recorded. The rat was returned to its home cage following training. NOR test (T2) was conducted 1 hour after T1. Each rat was placed back into the test arena in the presence of one familiar object and one novel object for 5 minutes, and the time spent exploring both objects was recorded. […]
Data of NOR test (T2) were expressed as Recognition Index, which is defined as the ratio of the time spent exploring the novel object over the total time spent exploring both objects (Novel/(Familiar+Novel)×100%) during the test session.
For Compound I-14, data were analyzed in two batches separately. […] Data were analyzed with t-test to evaluate the validity of the test. […]

Row | Structure (SMILES) | EC50 [1] [µM] | Recognition Index vs Vehicle-MK-801 group ([2]; 0-1 minute time range) | Recognition Index vs Vehicle-MK-801 group ([2]; 0-3 minute time range) | Recognition Index vs Vehicle-MK-801 group ([2]; 0-5 minute time range) | side effects in NOR study [2]
1 | Cc1cc(F)c(Cc2nc(-c3ncc(F)c(O)n3)cn3ccnc23)cc1F [Compound I-14, 5-fluoro-2-(8-(2,5-difluoro-4-methylbenzyl)imidazo[1,2-a]pyrazin-6-yl)pyrimidin-4-ol] | 0.021 | reversed the deficit | trend (P<0.10) in reversing MK-801-induced memory deficit | significantly higher Recognition Index | None of the rats in this study showed obvious side effects at any dose
2 | Oc1nc(-c2cn3ccnc3c(Cc3cc(F)ccc3F)n2)ncc1F [Compound I-20, 5-fluoro-2-(8-(2,5-difluorobenzyl)imidazo[1,2-a]pyrazin-6-yl)pyrimidin-4-ol] | 0.013 | – | – | – | None of the rats in this study showed obvious side effects at any dose
